In assay [1] the test system is HBV replication from pHBV1.3-Xnull replicon in HepG2 cells. The assay is described as follows: HBV production rescue assay, PEP-1 delivered peptides. The format is cell-based. As to conditions: HepG2 + pHBV1.3-Xnull; for HBcAg in cells / HBeAg in culture medium / HBsAg in culture medium / Secreted HBV DNA: peptide/PEP-1, 48 h; for HBV viral protein production and HBV DNA replication (in words): peptide/PEP-1 nanoparticles, 48 h. An excerpt:
Fig. 3 The HBx-BH3-like domain is critical for HBV production in HepG2 cells. a–e C-terminal biotinylated HBx-aa113–135 peptides (both wild-type (WT) and the W120A/L123A double mutant) were delivered into HepG2 cells transfected with pHBV1.3-Xnull using PEP-1 nanoparticles (Methods) and analyzed by streptavidin-FITC (fluorescein isothiocyanate) for transfection efficiency (a). Scale bar is 50 μm. An unrelated 23-aa peptide was used as a control (Control). The intracellular expression levels of HBV core antigen (HBcAg (b) and the levels of HBV e-antigen (HBeAg) (c), HBV S-antigen (HBsAg) (d), and HBV DNA (e) in the culture medium collected from HepG2 cells were measured (Methods). The results are shown as fold change to the WT HBx-aa113–135 peptide (WT). f–i) HepG2 cells were co-transfected with pHBV1.3-Xnull and pTT22m-HBx-WT (WT), pHBV1.3-Xnull and pTT22m-HBx(W120A/L123A), or pHBV1.3-Xnull and the pTT22m vector control (Control). Intracellular expression levels of HBcAg (f) and the levels of HBeAg (g), HBsAg (h), and HBV DNA (i) in the culture medium from HepG2 cells were measured similarly. The results are shown as fold change to the combination of pHBV1.3-Xnull and pTT22m-HBx-WT (WT). Data shown represent mean ± SD. Significance is indicated on the top. **P < 0.01, ***P < 0.001, ****P < 0.0001; two-tailed unpaired t tests (n = 3 biologically independent samples). Source data are provided as a Source Data file
HepG2 cells were grown in Dulbecco’s modified Eagle’s medium (DMEM) with 10% Gibco fetal bovine serum. C-terminal biotinylated-labeled HBx peptides were transfected into HepG2 cells by pep-1[16], a peptide carrier for the delivery of biologically active proteins into mammalian cells. HBx peptides and pep-1 were firstly dissolved in DMEM to 1 mg/ml, then adjusted to 500 µl DMEM to a final concentration of 100 µg/ml, and incubated at 37 °C for 30 min in the tube. The incubated peptide mixture was added into pre-seeded HepG2 cells in a 24-well plate and incubated for another 30 min, and then washed five times by phosphate-buffered saline (PBS) to remove the free peptides. The transfected C-terminal biotinylated HBx peptides were detected by using streptavidin-FITC (fluorescein isothiocyanate) equipment (Thermo Fisher Scientific) following the standard immunostaining methods.
Transfection of plasmids into HepG2 cells was carried out using X-tremeGENE HP DNA Transfection Reagent (Roche), following the manufacturer’s protocol. A transfection efficiency of 20–30% could be achieved. Cells were pre-seeded 24 h before transfections. pHBV1.3-HBx-null plasmid was transfected into HepG2 cells for 6 h, then HBx-aa113–135, HBx-aa113–135-(W120A, L123A), or control peptide was transfected by pep-1 carrier and incubated for additional 48 h without the removal of peptides. The culture media of the HepG2 cells were harvest for analysis.
The levels of HBsAg, HBeAg, and HBcAg expression were measured by chemiluminescence, using Commercial Assay Kit (Wantai, Beijing, China). Northern blot analysis of HBV RNA, Southern blot analysis of HBV DNA, and real-time PCR quantification of HBV DNA are described in the Supplementary Methods.

Another assay has as its system SMC6. It is filed as cell-based. Conditions: HepG2, 48 h, PEP-1 delivery; peer review file, removed from final paper. The protocol:
(§1) affect the level of the Smc6 proteins in HepG2 cell. a, Coprecipitation experiments were performed with HepG2 cell lysate that was incubated with biotinylated HBx-aa113-135 peptides (WT) and mutant peptides with the W120A/L123A mutations, respectively. The pulldown proteins were analyzed by immunoblotting (IB) using an anti-DDB1 antibody (Abcam, ab109027). b-c, HBx-aa113-135 peptides (wild-type and the W120A/L123A double mutant peptides) were delivered into HepG2 cells using PEP-1 nanoparticles, respectively. […]
Smc6 protein expression. Nuclei were stained with DAPI (Invitrogen, D1306). The fluorescence was detected by Opera Phenix High Content Screening System (PerkinElmer) and the mean green fluorescence intensity of cells was quantified by Opera Phenix High Content Screening System. The data shown are mean ± SD. Significant differences between groups are indicated on the top. ns, no significant difference; two-tailed unpaired t-tests.

The next assay concerns the target T1, Bcl-xL (Homo sapiens, UniProt Q07817, DEL27-82).
T1 construct: 6xHis-SUMO (N, cleaved yes); made in house; host or cells: Escherichia coli BL21(DE3)
Put plainly: Isothermal titration calorimetry of peptides with Bcl-xL. Conditions: ITC, 25 °C; Bcl-xL 10 μM in 25 mM Tris-HCl (pH 8.0); peptide 800 μM. The format is binding. The text has this:
The codon-optimized DNAs encoding Bcl-xLΔTM (the flexible loop, residues 27–82, and the transmembrane domain, residues, 197–233, are deleted, total […], named as Bcl-xL thereafter) was ordered from Genewiz (www.genewiz.com). The recombinant Bcl-xL with N-terminal SUMO-fused 6× His tag was generated by the insertion of the PCR products into pETSUMO vector (Invitrogen; www.thermofisher.com) and verified by sequencing. Recombinant proteins were expressed in Escherichia coli (BL21/DE3) strain overnight at 20 °C and proteins were induced by 0.4 mM isopropyl β-D-thiogalactoside. Cells were harvested by centrifugation and the pellets were re-suspended and passed through a cell disruptor (www.avestin.com) three times. After ultracentrifugation at 40,000 rpm for 1 h, the supernatant for His-tagged recombinant proteins were purified through Ni^2+ affinity column, cleaved by Ulp-1, followed by HiLoad Superdex S-75 26/60 column (GE Healthcare). The purified proteins were dialyzed against stabilization buffer containing 20 mM Tris-HCl (pH 7.0) and 100 mM NaCl and concentrated to 10–15 mg/ml in a Centriprep-30 (Amicon) for subsequent crystallization and biochemical analysis.
Microcalorimetry was used for all measurements. Bcl-xL protein was prepared at a final concentration of 10 μM in a buffer containing 25 mM Tris-HCl (pH 8.0). The ABT-263 was dissolved in the same buffer to a final concentration of 500 μM, while the peptides were dissolved to a final concentration of 800 μM. All experiments were carried out at 25 °C. Data were analyzed using the software Origin (OriginLab).

Assay [2] relates to endogenous Bcl-xL protein in HepG2 cell lysate. Put plainly: Co-precipitation of endogenous Bcl-xL from HepG2 cell lysate by biotinylated HBx peptides. The format is binding, human. Conditions: biotinylated peptide, streptavidin beads, immunoblot. On the procedure:
Fig. 2 HBx binds endogenous Bcl-xL through the BH3-like domain. a HBx-aa113–135 interacts with Bcl-xL in HepG2 cell lysate. Co-precipitation experiments were performed in the HepG2 cell lysate using biotinylated HBx-aa113–135 peptides (wild type (WT)) and corresponding mutant peptides (W120A/L123A), respectively. The results were analyzed by immunoblotting (IB) using anti-Bcl-xL antibody. β-Tubulin was measured and analyzed as an input control. b Full-length HBx interacts with Bcl-xL in HepG2 cells. Co-immunoprecipitation (co-IP) experiments were performed in HepG2 cells transfected with pTT22m-HBx-WT or pTT22m-HBx(W120A/L123A).
HepG2 cells were lysed in lysis buffer [100 mM NaCl, 0.5 mM MgCl2, 0.15 mM CaCl2, 1% (v/v) Nonidet P-40, 10 mM Tris-HCl, pH 8.0] containing protease inhibitor mixture tablets (Roche). Cell lysate was centrifuged at 12,000 × g for 10 min at 4 °C to removed debris and precleared with magnetic beads conjugated with streptavidin (Dynabeads® M-280 Streptavidin, Invitrogen). Subsequently, the precleared supernatant was incubated with C-terminal biotinylated peptides for 1 h with gentle shaking at 4 °C. […] The beads were washed five times with the lysis buffer and the bound proteins were resolved on a 13.5% sodium dodecyl sulfate-polyacrylamide gel and detected by anti-Bcl-xL antibody (Cell Signaling Technology).

The next assay has as its system DDB1. It is filed as binding. Conditions: biotin-conjugated peptides, HepG2 lysate; peer review file, removed from final paper. The protocol:
as §1

The text below walks through data of paper PMC6642116, “Structural and functional analyses of hepatitis B virus X protein BH3-like domain and Bcl-xL interaction” (Nature Communications, 2019).

T1 sequence (Q07817 with tags, fused parts or gaps DEL27-82 limits assumed): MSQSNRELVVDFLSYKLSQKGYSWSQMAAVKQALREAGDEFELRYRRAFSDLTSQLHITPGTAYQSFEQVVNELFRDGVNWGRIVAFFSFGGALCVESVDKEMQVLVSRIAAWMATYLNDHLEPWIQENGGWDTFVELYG

As for “KDCVFKDAEEAGEEIRLKVFVLG-K-biotin [HBx-aa113–135(W120A/L123A)]”, in assay [1] (replicate 1), the HBcAg in cells is on record as 0.546 fold-change to WT, the “HBeAg in culture medium” value was 0.448 fold-change to WT, the “HBsAg in culture medium” value is listed as 0.379 fold-change to WT and the “Secreted HBV DNA” value turned out to be 1584000 Copies/mL. Further, in assay [1] (replicate 2), the HBcAg in cells is on record as 0.465 fold-change to WT, the “HBeAg in culture medium” value was 0.393 fold-change to WT, the “HBsAg in culture medium” value is on record as 0.356 fold-change to WT and the “Secreted HBV DNA” value is 1498000 Copies/mL. Besides, in assay [1] (replicate 3), the HBcAg in cells was 0.491 fold-change to WT, the “HBeAg in culture medium” value is 0.405 fold-change to WT, the “HBsAg in culture medium” value is 0.352 fold-change to WT and the “Secreted HBV DNA” value came to 1278000 Copies/mL. For the same substance, the “HBV viral protein production and HBV DNA replication (in words)” value in assay [1] is “failed to do so”. Moreover, in the assay on SMC6, the “level of SMC6 protein, compared with control peptide” value is reported as “comparable”. Also, the dissociation constant result on Bcl-xL is “not detectable”. For the same substance, the “co-precipitation of Bcl-xL” value in assay [2] is “much less Bcl-xL was co-precipitated”. Also, the “pull-down of DDB1 by peptide” value with DDB1 is “could not be pulled down”.

Regarding “KDCVFKDWEELGEEIRLKVFVLG-K-biotin [HBx-aa113–135-biotin, C-terminal biotinylated wild-type HBx-aa113–135; delivered with PEP-1 nanoparticles in cells]”, in assay [1] (replicate 1), the HBcAg in cells is 1.057 fold-change to WT, the “HBeAg in culture medium” value is on record as 0.919 fold-change to WT, the “HBsAg in culture medium” value is given as 0.971 fold-change to WT and the “Secreted HBV DNA” value was found to be 3830000 Copies/mL. In addition, in assay [1] (replicate 2), the HBcAg in cells is 0.952 fold-change to WT, the “HBeAg in culture medium” value is recorded as 1.090 fold-change to WT, the “HBsAg in culture medium” value is 1.038 fold-change to WT and the “Secreted HBV DNA” value worked out at 2973000 Copies/mL. Also, in assay [1] (replicate 3), the HBcAg in cells is recorded as 0.991 fold-change to WT, the “HBeAg in culture medium” value is 0.990 fold-change to WT, the “HBsAg in culture medium” value was 0.991 fold-change to WT and the “Secreted HBV DNA” value is recorded as 4056000 Copies/mL. Moreover, in assay [1], the “HBV viral protein production and HBV DNA replication (in words)” value was “significantly increased both HBV viral protein production and HBV DNA replication”. The “level of SMC6 protein, compared with control peptide” value in the assay with SMC6 was “comparable”. For the same substance, in assay [2], the “co-precipitation of Bcl-xL” value is given as “Bcl-xL was co-precipitated”. In addition, the “pull-down of DDB1 by peptide” value in the assay with DDB1 is “could not be pulled down”.
